Reference: article PMC10235067, “Increased renal elimination of endogenous and synthetic pyrimidine nucleosides in concentrative nucleoside transporter 1 deficient mice” (Nature Communications, 2023)
Where “and” joins values, the source holds several entries; their conditions need not be identical. Identical values can stand only once.

Test: Gemcitabine plasma pharmacokinetics in Slc28a1+/+ and Slc28a1-/- mice
[1] = dFdU in plasma, KO mice, iv gemcitabine 50mg/kg, per mouse
[2] = dFdU in plasma, WT mice, iv gemcitabine 50mg/kg, per mouse

Protocol: To collect blood, a 5 mm lancet was used to apply pressure to the submandibular vein and release blood flow. For retro-orbital collection, mice were anesthetized with 3% isoflurane in oxygen, and the blood was collected directly into heparinized capillary tubes by applying slight pressure to the medial canthus of the eye. Cardiac puncture was performed as the final collection method by first euthanizing the mice in a CO2 chamber and immediately performing posterior cardiac puncture by inserting a 27 G needle with a 1 ml syringe attachment into the heart. Once blood collection was completed, gentle pressure was applied to the blood collection area using gauze to stop the bleeding. Thirty microliters of blood was collected into heparinized capillary tubes at each time point, transferred into prelabeled 0.5 ml microcentrifuge tubes containing THU (10 µg/ml; final concentration), and immediately processed and snap-frozen following procedures outlined in the “Gemcitabine plasma pharmacokinetics” methods section.
Gemcitabine and dFdU plasma concentrations were measured using a modified version of our previously published UHPLC–MS/MS method for nucleosides[74] […] Noncompartmental pharmacokinetic parameters (Cmax, Tmax, AUC, CL, T1/2, etc.) were calculated using WinNonlin 6.2 software (Pharsight; Mountain View, CA). […] The Cmax and Tmax were obtained from the concentration-time curve. The AUC was calculated according to the linear trapezoidal rule up to the last time point with a measurable concentration of the analyte of interest. Significant differences between Slc28a1^+/+ and Slc28a1^−/− mouse pharmacokinetic parameters (p < 0.05) were evaluated with an unpaired two-sided Student’s t-test.
The resulting supernatant was evaporated to dryness in a SpeedVac, and the remaining residue was reconstituted in mobile phase A for subsequent analysis. […] Subsequent processing was identical to that for the plasma and urine samples.
Briefly, the analysis was performed on an Imtakt Schzero SM C18 column, 2.1 × 100 mm, 3.0 µm particle size. The eluents used consisted of mobile phase A consisting of 50 mM ammonium formate:50 mM ammonium hydroxide (9:1, v/v) (pH = 8.6) and mobile phase B consisting of 50 mM ammonium formate:50 mM ammonium hydroxide (9:1, v/v):ACN (80:20, v/v) (pH = 8.6). […] The injection volume was 10 μL, and the autosampler temperature was set at 4 °C throughout the analysis.
The Waters Triple Quadrupole Mass Spectrometer with an ESI source was operated in negative and positive ion mode at a spray voltage of 2.5 kV, capillary temperature of 150 °C, and vaporizer temperature of 250 °C. Compound optimization was performed manually using the MassLynx 4.1 Software AutoTune Wizard (Waters, Milford, MA) by infusion into the mass spectrometer using a T-connector. […] Analyze concentrations were determined and analyzed using MassLynx Mass Spectrometry Software (Waters; Milford, MA).

AUC (Last) (Slc28a1-/- mice, plasma, single i.v. dFdC 50 mg/kg): 1453.8 ± 31.9 ng x min/mL
AUCINF_obs [1]: 12372.5 ng·min/mL and 7563.4 ng·min/mL
AUCINF_pred [1]: 12429.8 ng·min/mL and 7594.45 ng·min/mL
AUC_%Back_Ext_obs [1]: 27.8053% and 16.048% and 18.9747%
AUC_%Back_Ext_pred [1]: 27.8277% and 15.9741% and 18.8972%
AUC_%Extrap_obs [1]: 3.511% and 11.2661% and 5.257%
AUC_%Extrap_pred [1]: 3.433% and 11.6749% and 5.644%
AUMC_%Extrap_obs [1]: 13.2491% and 31.3337% and 16.4642%
AUMC_%Extrap_pred [1]: 12.9851% and 32.2062% and 17.5245%
HL_Lambda_z [1]: 5.606 min and 8.621 min and 6.452 min
Lambda_z [1]: 0.0804 min⁻¹ and 0.1074 min⁻¹
MRTINF_obs [1]: 15.2585 min and 12.5511 min
MRTINF_pred [1]: 15.3837 min and 12.6605 min
Tlast [1]: 30 min and 15 min
Tmax [1]: 5 min and 10 min and 15 min
SMILES: O=c1ccn([C@@H]2O[C@H](CO)[C@@H](O)C2(F)F)c(=O)[nH]1 [dFdU, 2′,2′-difluorodeoxyuridine]
AUCINF_D_obs [1]: 145.293 kg·ng·min/mL/mg and 247.451 kg·ng·min/mL/mg and 151.268 kg·ng·min/mL/mg
AUCINF_D_pred [1]: 145.176 kg·ng·min/mL/mg and 248.596 kg·ng·min/mL/mg and 151.889 kg·ng·min/mL/mg
AUCall [1]: 7482.64 ng·min/mL and 12659.7 ng·min/mL and 8852.13 ng·min/mL and 5047.42 ng·min/mL and 7806.56 ng·min/mL and 6947.11 ng·min/mL
AUClast [1]: 7009.6 ng·min/mL and 10978.6 ng·min/mL and 5995.89 ng·min/mL and 3337.67 ng·min/mL and 7165.79 ng·min/mL and 6415.86 ng·min/mL
AUClast_D [1]: 140.192 kg·ng·min/mL/mg and 219.572 kg·ng·min/mL/mg and 119.918 kg·ng·min/mL/mg and 66.7534 kg·ng·min/mL/mg and 143.316 kg·ng·min/mL/mg and 128.317 kg·ng·min/mL/mg
AUMCINF_obs [1]: 73315.1 min*min*ng/mL and 188787 min*min*ng/mL and 94928.9 min*min*ng/mL
AUMCINF_pred [1]: 73092.7 min*min*ng/mL and 191216 min*min*ng/mL and 96149.2 min*min*ng/mL
AUMClast [1]: 63601.5 min*min*ng/mL and 129633 min*min*ng/mL and 47032.5 min*min*ng/mL and 25446 min*min*ng/mL and 79299.6 min*min*ng/mL and 72737 min*min*ng/mL
Cl_pred [1]: 413.291 L/h/kg and 241.36 L/h/kg and 395.026 L/h/kg
Clast [1]: 31.5362 ng/mL and 112.074 ng/mL and 380.831 ng/mL and 227.966 ng/mL and 42.718 ng/mL and 35.4167 ng/mL
Clast_pred [1]: 30.8142 ng/mL and 116.678 ng/mL and 46.0533 ng/mL
Cmax [1]: 399.844 ng/mL and 516.311 ng/mL and 478.159 ng/mL and 230.143 ng/mL and 315.127 ng/mL and 303.44 ng/mL
Cmax_D [1]: 7.997 kg·ng/mL/mg and 10.3262 kg·ng/mL/mg and 9.563 kg·ng/mL/mg and 4.603 kg·ng/mL/mg and 6.303 kg·ng/mL/mg and 6.069 kg·ng/mL/mg
MRTlast [1]: 11.8078 min and 7.844 min and 7.624 min and 11.0664 min and 11.3371 min
Vss_obs [1]: 69.4601 L/kg and 61.663 L/kg and 82.9724 L/kg
Vss_pred [1]: 69.3609 L/kg and 61.8825 L/kg and 83.3534 L/kg
Vz_obs [1]: 55.6606 L/kg and 50.262 L/kg and 61.5323 L/kg
Vz_pred [1]: 55.7054 L/kg and 50.0305 L/kg and 61.2807 L/kg
AUCINF_D_obs [2]: 809.741 kg·ng·min/mL/mg and 249.152 kg·ng·min/mL/mg and 172.396 kg·ng·min/mL/mg and 377.161 kg·ng·min/mL/mg
AUCINF_D_pred [2]: 816.693 kg·ng·min/mL/mg and 238.149 kg·ng·min/mL/mg and 171.456 kg·ng·min/mL/mg and 377.935 kg·ng·min/mL/mg
AUCINF_obs [2]: 40487.1 ng·min/mL and 12457.6 ng·min/mL and 8619.8 ng·min/mL and 18858.1 ng·min/mL
AUCINF_pred [2]: 40834.7 ng·min/mL and 11907.4 ng·min/mL and 8572.82 ng·min/mL and 18896.7 ng·min/mL
AUC_%Back_Ext_obs [2]: 5.421% and 15.2704% and 19.786% and 11.9089%
AUC_%Back_Ext_pred [2]: 5.375% and 15.976% and 19.8944% and 11.8845%
AUC_%Extrap_obs [2]: 84.3044% and 33.9106% and 11.4334% and 37.4722%
AUC_%Extrap_pred [2]: 84.438% and 30.857% and 10.948% and 37.6002%
AUCall [2]: 4075.38 ng·min/mL and 9255.63 ng·min/mL and 10796.8 ng·min/mL and 8847.25 ng·min/mL and 15444.5 ng·min/mL and 12682.2 ng·min/mL
AUClast [2]: 2654.78 ng·min/mL and 6354.7 ng·min/mL and 8233.16 ng·min/mL and 7634.27 ng·min/mL and 11791.5 ng·min/mL and 11904.6 ng·min/mL
AUClast_D [2]: 53.0957 kg·ng·min/mL/mg and 127.094 kg·ng·min/mL/mg and 164.663 kg·ng·min/mL/mg and 152.685 kg·ng·min/mL/mg and 235.831 kg·ng·min/mL/mg and 238.093 kg·ng·min/mL/mg
AUMCINF_obs [2]: 3570423 min*min*ng/mL and 327900 min*min*ng/mL and 123838 min*min*ng/mL and 570014 min*min*ng/mL
AUMCINF_pred [2]: 3606313 min*min*ng/mL and 297795 min*min*ng/mL and 121856 min*min*ng/mL and 572297 min*min*ng/mL
AUMC_%Extrap_obs [2]: 98.6995% and 70.4945% and 33.5736% and 73.1636%
AUMC_%Extrap_pred [2]: 98.7124% and 67.5118% and 32.4931% and 73.2706%
AUMClast [2]: 21508.2 min*min*ng/mL and 46433.5 min*min*ng/mL and 96748.4 min*min*ng/mL and 82261.4 min*min*ng/mL and 152972 min*min*ng/mL and 128827 min*min*ng/mL
Cl_pred [2]: 73.467 L/h/kg and 251.944 L/h/kg and 349.943 L/h/kg and 158.758 L/h/kg
Clast [2]: 189.413 ng/mL and 386.792 ng/mL and 170.91 ng/mL and 80.8657 ng/mL and 243.534 ng/mL and 51.8385 ng/mL
Clast_pred [2]: 390.731 ng/mL and 148.651 ng/mL and 77.0106 ng/mL and 244.867 ng/mL
Cmax [2]: 214.033 ng/mL and 433.203 ng/mL and 507.425 ng/mL and 460.142 ng/mL and 479.909 ng/mL and 627.306 ng/mL
Cmax_D [2]: 4.281 kg·ng/mL/mg and 8.664 kg·ng/mL/mg and 10.1485 kg·ng/mL/mg and 9.203 kg·ng/mL/mg and 9.598 kg·ng/mL/mg and 12.5461 kg·ng/mL/mg
HL_Lambda_z [2]: 61.1667 min and 17.1328 min and 8.4476 min and 20.1128 min
Lambda_z [2]: 0.01133 min⁻¹ and 0.04046 min⁻¹ and 0.08205 min⁻¹ and 0.03446 min⁻¹
MRTINF_obs [2]: 88.1868 min and 26.3212 min and 14.3667 min and 30.2266 min
